Experimental data as given in patent US20130109664A1 (priority 2011, published 2013).
Where two headings read alike, the source gives them in different places.

Assays:
Malassezia furfur = experiment: Intrinsic anti-Malassezia potency, growth inhibition by optical density; type: cell-based; conditions: for IC50: M. furfur in mDixon medium, overnight at 31°, OD 600 nm; for independent anti-fungal effectiveness (in words): comment on Table 1 data
Experimental: To measure the growth inhibition properties of test materials against Malassezia, we carried out the following protocol.
Starting cultures are prepared by incubating with shaking at 31°. Cells (5 ml of culture) are collected by centrifugation and suspended in 50 ml fresh mDixon medium. […] The plates are shaken vigorously on a Heidolph Titramax 100 overnight at 31°. To increase the humidity, water-soaked cotton batting is placed over the plates.
As a control, the optical density of untreated M. furfur is measured after overnight incubation. As another control, the optical density of the starting culture is measured. The difference between these optical densities represents the amount of growth of M. furfur.

[1] = cited from earlier work
M. furfur 7982 = experiment: Fractional Inhibitor Concentration (FIC) of chelator in combination with ZPT; type: cell-based, Malassezia furfur; conditions: average of duplicate plates, 2 days at 33° C., ≦0.5 synergistic, >0.5-1.0 additive
Text: Fractional Inhibitor Concentration (FIC) is a conventional methodology for evaluating antimicrobial interactions. In an embodiment of the present invention, an FIC is used to determine combinatorial effects of two chemicals on anti-Malassezia activity in a tissue culture setting.
• 1. Each FIC assay is run in duplicate. • 2. Low levels of M. furfur 7982 cells are inoculated into each well of a 96 well plate. • 3. Chemical #1 (in our assays, this is always ZPT) is titrated (2× concentration reductions) from right to left across each row of the plate, starting at 12.5 ppm final concentration and ending at 0 ppm. • 4. […] Plates are incubated at 33° C., 60% RH for 2 days with agitation. • 6. Optical densities (OD's) are then determined using a spectrophotometer.
• 1. […] Lack of inhibition of growth is determined if the OD>0.6, and the well is labeled with a ‘+’. • 3. The lowest concentration value of chemical #1, both by itself and with the lowest concentration of chemical #1 which boosts chemical #2's potency, that inhibit growth are determined (see FIG. 1). • 4. Likewise, the lowest concentration of chemical #2, both by itself and with the lowest concentration of chemical #2 that boosts chemical #1's potency, that inhibit growth are determined (see FIG. 1). • 5. The FIC value for the duplicate plates is determined using the calculations below:
[formula] [formula] • 6. The average FIC value is then determined, and the combinatorial effect of the two chemicals is classified according to the chart below: […]

[2] = Iron affinity, stepwise association constant log K1; type: physicochemical
Text: The strength of the association between a ligand and metal, in this case iron, can be termed iron affinity.
The affinity constant is conveniently expressed as the logarithm (log K1) and the larger the magnitude of this number, the stronger the association between the metal (iron ions in this case) and ligand.

[3] = source (a) NIST Standard Reference Database 46
[4] = (e) interpolated from correlation between Cu2+ and Fe2+ data
[5] = (c) interpolated from correlation between Zn2+ and Fe2+ data
[6] = (d) interpolated from correlation between Fe3+ and Fe2+ data
[7] = source (b) IUPAC Stability Constant Database

O=C(O)CN(CC(=O)O)[C@@H]1CCCC[C@H]1N(CC(=O)O)CC(=O)O (relative stereo) [trans-1,2-Cyclohexylenedinitrilotetraacetic acid]
IC50 (Malassezia furfur): 500 µM | Iron Affinity, log K1 Fe2+, pH = 7.4 [1, 3]: 14.0

Cc1c([O-])c(=O)ccn1C.Cc1c([O-])c(=O)ccn1C.[Zn+2] [1,2-Dimethyl-3-hydroxy-4-pyridone, Zinc salt]
FIC (Fractional Inhibitory Concentration) (M. furfur 7982): 0.5

C1CNCCNCCNCCNCCNCCN1 [1,4,7,10,13,16-Hexaazacyclooctadecane]
Iron Affinity, log K1 Fe2+, pH = 7.4 [2, 4]: 13.3

O=C(O)CN1CCCN(CC(=O)O)CCN(CC(=O)O)CCCN(CC(=O)O)CC1 [1,4,8,11-Tetraazacyclotetradecane-N,N′,N″,N″′-tetraacetic acid]
IC50 (Malassezia furfur): > 500 µM | Iron Affinity, log K1 Fe2+, pH = 7.4 [1, 3]: 9.9

S=C(N=Nc1ccccc1)NNc1ccccc1 [1,5-Diphenyl-1,2,4,5-tetraazapent-1-en-3-thione]
Iron Affinity, log K1 Fe2+, pH = 7.4 [1, 3]: 6.5

c1cnc2c(c1)ccc1cccnc12 [1,10-Phenanthroline]
Iron Affinity, log K1 Fe2+, pH = 7.4 [1, 3]: 5.9

Oc1ccc2ccccc2c1N=Nc1nccs1 [1-(2-Thiazoylazo)-2-naphthol]
IC50 (Malassezia furfur): 250 µM | Iron Affinity, log K1 Fe2+, pH = 7.4 [2, 5]: 6.6

CC(C)c1cccc(O)c(=O)c1 [1-Hydroxy-4-(1-methylethyl)cyclohepta-3,5,7-trien-2-one]
IC50 (Malassezia furfur; Malassezia furfur): 65 µM | Iron Affinity, log K1 Fe2+, pH = 7.4 [2, 5]: 4.9

c1ccc(-c2cccc(-c3ccccn3)n2)nc1 [2,2′: 6′,2″-terpyridine]
Iron Affinity, log K1 Fe2+, pH = 7.4 [2, 5]: 5.0

Cc1ccc2ccc3ccc(C)nc3c2n1 [2,9-dimethyl-1,10-phenanthroline]
Iron Affinity, log K1 Fe2+, pH = 7.4 [2, 5]: 3.3

NCCc1ccccn1 [2-(2-aminoethyl)-pyridine]
Iron Affinity, log K1 Fe2+, pH = 7.4 [2, 6]: 5.2

Cc1c(O)c(=O)ccn1C [3-Hydroxy-1,2-dimethyl-4(1H)-pyridone]
Iron Affinity, log K1 Fe2+, pH = 7.4 [2, 5]: 3.9

Oc1ccc(N=Nc2nccs2)c(O)c1 [4-(2-thiazolylazo)-resorcinol]
Iron Affinity, log K1 Fe2+, pH = 7.4 [1, 3]: 3.2

Oc1c(Cl)cc(Cl)c2cccnc12 [5,7-dichloro-8-hydroxyquinoline]
Iron Affinity, log K1 Fe2+, pH = 7.4 [1, 7]: 7.2

Oc1c(I)cc(Cl)c2cccnc12 [5-Chloro-8-hydroxy-7-iodoquinoline]
Iron Affinity, log K1 Fe2+, pH = 7.4 [1, 7]: 7.0

Oc1cccc2cccnc12 [8-hydroxyquinoline]
Iron Affinity, log K1 Fe2+, pH = 7.4 [2, 5]: 4.9

O=C(O)CN(CCN(CC(=O)O)CC(=O)O)CC(=O)O [Ethylenediaminetetraacetic acid]
IC50 (Malassezia furfur; Malassezia furfur): > 500 µM | independent anti-fungal effectiveness (in words) (Malassezia furfur): not to be effective

CCC(NCCNC(CC)C(=O)O)C(=O)O (stereo not shown) [Ethylenediiminodi-2-butanoic acid]
IC50 (Malassezia furfur): > 500 µM | Iron Affinity, log K1 Fe2+, pH = 7.4 [2, 5]: 6.3

c1ccc(CN(CCN(Cc2ccccn2)Cc2ccccn2)Cc2ccccn2)nc1 [N,N,N′,N-tetrakis(2-pyridylmethyl) ethylenediamine]
IC50 (Malassezia furfur): 71 µM | Iron Affinity, log K1 Fe2+, pH = 7.4 [1, 3]: 14.2

O=C(O)CN(CCO)CCO [N,N-Bis(2-hydroxyethyl)glycine]
Iron Affinity, log K1 Fe2+, pH = 7.4 [2, 5]: 3.6

O=C1c2cccc3cccc(c23)C(=O)N1O [N,N-Naphthaloylhydroxylamine]
FIC (Fractional Inhibitory Concentration) (M. furfur 7982): 0.8

CCCCCCCCOc1cccc(=O)n1O.NCCO [N-Hydroxy-6-octyloxypyridine-2(1H)one, ethanolamine salt]
IC50 (Malassezia furfur): 54.6 µM | Iron Affinity, log K1 Fe2+, pH = 7.4 [2, 6]: 5.4 | FIC (Fractional Inhibitory Concentration) (M. furfur 7982): 0.62

CCCCCCCCOc1cccc(=O)n1[O-].CCCCCCCCOc1cccc(=O)n1[O-].[Zn+2] [N-Hydroxy-6-octyloxypyridine-2(1H)one, zinc salt]
FIC (Fractional Inhibitory Concentration) (M. furfur 7982): 0.7

O=C(O)c1ccccc1O [Salicylic acid]
IC50 (Malassezia furfur; Malassezia furfur): > 500 µM | Iron Affinity, log K1 Fe2+, pH = 7.4 [2, 4]: −3.0

Cc1occc(=S)c1O [Thiomaltol]
FIC (Fractional Inhibitory Concentration) (M. furfur 7982): 0.8

[O-]n1ccccc1=S.[O-]n1ccccc1=S.[Zn+2] [Zinc Pyrithione, zinc salt of 1-hydroxy-2-pyridinethione]
Iron Affinity, log K1 Fe2+, pH = 7.4 [2, 5]: 4.3

NCCC(=O)N[C@@H](Cc1c[nH]cn1)C(=O)O [beta-Alanyl-L-histidine]
Iron Affinity, log K1 Fe2+, pH = 7.4 [2, 5]: 1.3

O=c1cc(CO)occ1O [kojic acid]
Iron Affinity, log K1 Fe2+, pH = 7.4 [2, 5]: 3.7

Cc1occc(=O)c1O [maltol]
independent anti-fungal effectiveness (in words) (Malassezia furfur): too hydrophilic to be an effective anti-fungal material independently | Iron Affinity, log K1 Fe2+, pH = 7.4 [2, 5]: 6.4

Benzohydroxamic acid, Zinc Salt
FIC (Fractional Inhibitory Concentration) (M. furfur 7982): 0.3

Maltol, Zinc salt
FIC (Fractional Inhibitory Concentration) (M. furfur 7982): 0.1

Thiomaltol, Zinc salt
FIC (Fractional Inhibitory Concentration) (M. furfur 7982): 0.5
